Measurements reported in patent US7629344B2, “3-(imidazolyl)-pyrazolo[3,4-b]pyridines” (ChemoCentryx, Inc., priority 2007, dated 2009).

Biological target: T1, CCR1 (Homo sapiens, UniProt P32246)
T1 construct: host or cells: THP-1 cells or freshly isolated monocytes
T1 sequence (P32246 1-355): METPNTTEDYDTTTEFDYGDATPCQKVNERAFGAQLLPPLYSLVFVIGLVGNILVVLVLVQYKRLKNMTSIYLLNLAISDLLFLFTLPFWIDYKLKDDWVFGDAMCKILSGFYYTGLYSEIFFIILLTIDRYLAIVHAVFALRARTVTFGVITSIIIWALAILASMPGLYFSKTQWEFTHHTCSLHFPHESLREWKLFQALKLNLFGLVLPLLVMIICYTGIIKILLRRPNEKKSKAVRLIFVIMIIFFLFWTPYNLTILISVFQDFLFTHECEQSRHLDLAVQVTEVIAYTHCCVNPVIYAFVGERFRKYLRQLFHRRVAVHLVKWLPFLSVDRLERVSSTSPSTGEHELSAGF
Assay: Chemotaxis assay (inhibition of CCR1 mediated migration)
Type: cell-based
Conditions: THP-1 or monocyte cells; CCR1 chemokine ligand (MIP-1α, CCL15/Leukotactin); 1-2 hours at 37° C.
Experimental: THP-1 cells were obtained from ATCC (TIB-202) and cultured as a suspension in RPMI-1640 medium supplemented with 2 mM L-glutamine, 1.5 g/L sodium bicarbonate, 4.5 g/L glucose, 10 mM HEPES, 1 mM sodium pyruvate, 0.05% 2-mercaptoethanol and 10% FBS. Cells were grown under 5% CO2/95% air, 100% humidity at 37° C. and subcultured twice weekly at 1:5 (cells were cultured at a density range of 2×10^5 to 2×10^6 cells/mL) and harvested at 1×10^6 cells/mL. THP-1 cells express CCR1 and can be used in CCR1 binding and functional assays. • 2. Chemotaxis Assays
Chemotaxis assays were performed using 5 μm pore polycarbonate, polyvinylpyrrolidone-coated filters in 96-well chemotaxis chambers (Neuroprobe; Gaithersburg, Md.) using chemotaxis buffer (Hank's balanced salt solution (HBSS) and 1% FBS). CCR1 chemokine ligands (i.e., MIP-1α, CCL15/Leukotactin; R&D Systems; Minneapolis, Minn.) are use to evaluate compound mediated inhibition of CCR1 mediated migration. Other chemokines (i.e., SDF-1α; R&D Systems; Minneapolis, Minn.) are used as specificity controls. The lower chamber was loaded with 29 μl of chemokine (i.e., 0.1 nM CCL15/Leukotactin) and varying amounts of compound; the top chamber contained 100,000 THP-1 or monocyte cells in 20 μl. The chambers were incubated 1-2 hours at 37° C., and the number of cells in the lower chamber quantified either by direct cell counts in five high powered fields per well or by the CyQuant assay (Molecular Probes), a fluorescent dye method that measures nucleic acid content and microscopic observation. • B. Identification of Inhibitors of CCR1
One of the primary functions of chemokines is their ability to mediate the migration of chemokine receptor-expressing cells, such as white blood cells. To confirm that a compound of interest inhibited not only CCR1 specific binding and signaling (at least as determined by calcium mobilization assays), but also CCR1 mediated migration, a chemotaxis assay was employed. THP-1 myelomonocytic leukemia cells, which resemble monocytes, as wells as freshly isolated monocytes, were used as targets for chemoattraction by CCR1 chemokine ligands (i.e., MIP-1α, CCL15/leukotactin). Cells were placed in the top compartment of a microwell migration chamber, while MIP-1α (or other potent CCR1 chemokine ligand) and increasing concentrations of a compound of interest was loaded in the lower chamber. […] In this assay, the amount of compound was varied; while cell number and chemokine agonist concentrations were held constant. After the chemotaxis chambers were incubated 1-2 hours at 37° C., the responding cells in the lower chamber were quantified by labeling with the CyQuant assay (Molecular Probes), a fluorescent dye method that measures nucleic acid content, and by measuring with a Spectrafluor Plus (Tecan). The computer program Prism from GraphPad, Inc. (San Diego, Calif.) was used to calculate IC50 values. IC50 values are those compound concentrations required to inhibit the number of cells responding to a CCR1 agonist by 50%. • 1. In Vivo Efficacy • a) Rabbit Model of Destructive Joint Inflammation

Row | Structure (SMILES) | IC50 [nM]
1 | COc1cc(N2CCN(C(=O)Cn3nc(-c4ncc[nH]4)c4cccnc43)CC2)ccc1Cl [1.016, 1-[4-(4-Chloro-3-methoxy-phenyl)-piperazin-1-yl]-2-[3-(1H-imidazol-2-yl)-pyrazolo[3,4-b]pyridin-1-yl]-ethanone] | ≤ 100
2 | O=C(Cn1nc(-c2ncc[nH]2)c2cccnc21)N1CCN(c2ccc(Cl)c(OC(F)(F)F)c2)CC1 [1.015, 1-[4-(4-Chloro-3-trifluoromethoxy-phenyl)-piperazin-1-yl]-2-[3-(1H-imidazol-2-yl)-pyrazolo[3,4-b]pyridin-1-yl]-ethanone] | > 100
3 | COc1cc(N2CCN(C(=O)Cn3nc(-c4nccn4C)c4cccnc43)CC2)ccc1Cl [1.017, 1-[4-(4-Chloro-3-methoxy-phenyl)-piperazin-1-yl]-2-[3-(1-methyl-1H-imidazol-2-yl)-pyrazolo[3,4-b]pyridin-1-yl]-ethanone] | ≤ 100
4 | Cc1cc(N2CCN(C(=O)Cn3nc(-c4ncc[nH]4)c4cccnc43)CC2)ccc1Cl [1.013, 1-[4-(4-Chloro-3-methyl-phenyl)-piperazin-1-yl]-2-[3-(1H-imidazol-2-yl)-pyrazolo[3,4-b]pyridin-1-yl]-ethanone] | ≤ 100
5 | O=C(Cn1nc(-c2ncc[nH]2)c2cccnc21)N1CCN(c2ccc(Cl)c(OCCF)c2)CC1 [1.011, 2-(3-(1H-imidazol-2-yl)-1H-pyrazolo[3,4-b]pyridin-1-yl)-1-(4-(3-(2-fluoroethoxy)-4-chlorophenyl)piperazin-1-yl)ethanone] | ≤ 100
6 | O=C(Cn1nc(-c2ncc[nH]2)c2cccnc21)N1CCN(c2ccc(Cl)c(C(F)(F)F)c2)CC1 [1.014, 1-[4-(4-Chloro-3-trifluoromethyl-phenyl)-piperazin-1-yl]-2-[3-(1H-imidazol-2-yl)-pyrazolo[3,4-b]pyridin-1-yl]-ethanone] | > 100
7 | COc1cc(N2CCN(C(=O)Cn3nc(-c4ncc[nH]4)c4cccnc43)C[C@H]2C)ccc1Cl [1.007, 1-[(R)-4-(4-Chloro-3-methoxyphenyl)-3-methylpiperazin-1-yl]-2-[3-(1H-imidazol-2-yl)-pyrazolo[3,4-b]pyridin-1-yl]ethanone] | ≤ 100
8 | CCOc1cc(N2CCN(C(=O)Cn3nc(-c4ncc[nH]4)c4cccnc43)CC2)ccc1Cl [1.003, 1-[4-(4-Chloro-3-ethoxyphenyl)piperazin-1-yl]-2-[3-(1H-imidazol-2-yl)pyrazolo[3,4-b]pyridin-1-yl]ethanone] | ≤ 100
9 | O=C(Cn1nc(-c2ncc[nH]2)c2cccnc21)N1CCN(c2cc(OCCF)c(Cl)cc2F)CC1 [1.002, 1-{4-[4-Chloro-2-fluoro-5-(2-fluoroethoxy)-phenyl]piperazin-1-yl}-2-[3-(1H-imidazol-2-yl)-pyrazolo[3,4-b]pyridin-1-yl]ethanone] | ≤ 100
10 | COc1cc(N2CCN(C(=O)Cn3nc(-c4ncc[nH]4)c4cccnc43)C[C@@H]2C)ccc1Cl [1.008, 1-[(S)-4-(4-Chloro-3-methoxyphenyl)-3-methylpiperazin-1-yl]-2-[3-(1H-imidazol-2-yl)-pyrazolo[3,4-b]pyridin-1-yl]ethanone] | ≤ 100

The next lines start with the values.

Row | IC50 [nM] | Structure (SMILES)
11 | ≤ 100 | CCOc1cc(N2CCN(C(=O)Cn3nc(-c4ncc[nH]4)c4cccnc43)CC2)c(F)cc1Cl [1.001, 1-[4-(4-Chloro-5-ethoxy-2-fluorophenyl)piperazin-1-yl]-2-[3-(1H-imidazol-2-yl)-pyrazolo[3,4-b]pyridin-1-yl]ethanone]
12 | ≤ 100 | COc1cc(N2CCN(C(=O)Cn3nc(-c4ncc[nH]4)c4cccnc43)[C@H](C)C2)ccc1Cl [1.009, 1-[(R)-4-(4-Chloro-3-methoxyphenyl)-2-methylpiperazin-1-yl]-2-[3-(1H-imidazol-2-yl)-pyrazolo[3,4-b]pyridin-1-yl]ethanone]
13 | ≤ 100 | COc1cc(N2CCN(C(=O)Cn3nc(-c4ncc[nH]4)c4cccnc43)CC2)c(F)cc1Cl [1.004, 1-[4-(4-Chloro-2-fluoro-5-methoxyphenyl)piperazin-1-yl]-2-[3-(1H-imidazol-2-yl)-pyrazolo[3,4-b]pyridin-1-yl]ethanone]
14 | ≤ 100 | COc1cc(N2CCN(C(=O)Cn3nc(-c4ncc[nH]4)c4cccnc43)[C@@H](C)C2)c(F)cc1Cl [1.006, 1-[(S)-4-(4-Chloro-2-fluoro-5-methoxyphenyl)-2-methylpiperazin-1-yl]-2-[3-(1H-imidazol-2-yl)pyrazolo[3,4-b]pyridin-1-yl]ethanone]
15 | ≤ 100 | COc1cc(N2CCN(C(=O)Cn3nc(-c4ncc[nH]4)c4cccnc43)[C@@H](C)C2)ccc1Cl [1.005, 1-[(S)-4-(4-Chloro-3-methoxyphenyl)-2-methylpiperazin-1-yl]-2-[3-(1H-imidazol-2-yl)-pyrazolo[3,4-b]pyridin-1-yl]ethanone]
16 | ≤ 100 | C[C@H]1CN(c2ccc(Cl)c(OCCF)c2)CCN1C(=O)Cn1nc(-c2ncc[nH]2)c2cccnc21 [1.012, 2-(3-(1H-imidazol-2-yl)-1H-pyrazolo[3,4-b]pyridin-1-yl)-1-((S)-4-(3-(2-fluoroethoxy)-4-chlorophenyl)-2-methylpiperazin-1-yl)ethanone]
17 | ≤ 100 | CCOc1cc(N2CCN(C(=O)Cn3nc(-c4ncc[nH]4)c4cccnc43)[C@@H](C)C2)ccc1Cl [1.010, 2-(3-(1H-imidazol-2-yl)-1H-pyrazolo[3,4-b]pyridin-1-yl)-1-((S)-4-(4-chloro-3-ethoxyphenyl)-2-methylpiperazin-1-yl)ethanone]

Test system: not listed separately
Assay: Pharmacokinetic tests conducted in animals
Type: in vivo
Conditions: over related compounds (U.S. Publication No. 2007/0010524A1)

Row | Structure (SMILES) | AUC | Cmax | oral bioavailability
18 | COc1cc(N2CCN(C(=O)Cn3nc(-c4ncc[nH]4)c4cccnc43)CC2)ccc1Cl [1.016, 1-[4-(4-Chloro-3-methoxy-phenyl)-piperazin-1-yl]-2-[3-(1H-imidazol-2-yl)-pyrazolo[3,4-b]pyridin-1-yl]-ethanone] | increased | increased | improved

Test system: Female New Zealand rabbits
Assay: Rabbit model of destructive joint inflammation (rabbit LPS study)
Type: in vivo
Conditions: intra-articular LPS (10 ng) in both knees; dosed orally 2 hours before and 4 hours after LPS; knees lavaged sixteen hours after LPS
Experimental: A rabbit LPS study was conducted essentially as described in Podolin, et al. J. Immunol. 169(11):6435-6444 (2002). Female New Zealand rabbits (approximately 2 kilograms) were treated intra-articularly in both knees with LPS (10 ng). The compound of interest, for example 1.016, (formulated in 1% methocel) or vehicle (1% methocel) was dosed orally at a 5 ml/kg dose volume at two times (2 hours before the intra-articular LPS injection and 4 hours after the intra-articular LPS injection). Sixteen hours after the LPS injection, knees were lavaged and cells counts were performed. Beneficial effects of treatment were determined by reduction in the number of inflammatory cells recruited to the inflamed synovial fluid of the knee joints.

Row | Structure (SMILES) | number of inflammatory cells recruited to the inflamed synovial fluid of the knee joints
19 | COc1cc(N2CCN(C(=O)Cn3nc(-c4ncc[nH]4)c4cccnc43)CC2)ccc1Cl [1.016, 1-[4-(4-Chloro-3-methoxy-phenyl)-piperazin-1-yl]-2-[3-(1H-imidazol-2-yl)-pyrazolo[3,4-b]pyridin-1-yl]-ethanone] | significant reduction

Test system: not given
Assay: not given
Conditions: not given

Row | Structure (SMILES) | melting point [°C]
20 | COc1cc(N2CCN(C(=O)Cn3nc(-c4ncc[nH]4)c4cccnc43)CC2)ccc1Cl [1.016, 1-[4-(4-Chloro-3-methoxy-phenyl)-piperazin-1-yl]-2-[3-(1H-imidazol-2-yl)-pyrazolo[3,4-b]pyridin-1-yl]-ethanone] | 149 to 152
